Data set [1] is described as follows: RU-486 and emetine composition pharmacokinetics study (RU-486 blood concentrations by HPLC). The class given is in vivo. The following applies: human, plasma, po, one tablet (10 mg RU-486) orally, eight subjects per group. The procedure: Experiment 4: RU-486 and Emetine Composition Pharmacokinetics Studies
The studies were carried out with two test groups in parallel. The first group used the composite tablets according to preparation I described below (10 mg RU-486 and 8.4 mg emetine). The control group used tablets containing only 10 mg RU-486. The two types of tablets were similarly prepared, and they had the same appearance. A total of sixteen test subjects were involved, eight in each group. Each test subject was given one pill and blood samples were collected at 0, 0.33, 0.5, 0.75, 1, 1.5, 2, 3, 4, 6, 8, 12, 24, 48, 72, 96, and 120 hours for the determination of RU-486 concentrations in order to calculate Cmax, Tmax, AUC0-120, AUC0-∞, and T1/2 pharmacokinetics parameters.
Experiment 5: Analysis of Pharmacokinetics Samples
RU-486 blood concentration determinations: The analysis used calibrated HPLC. Calibration was performed for a concentration range from 5 to 5000 ng/ml. The internal standard for the analysis was metoclopramide, at 20 ng/ml, 400 ng/ml, and 4000 ng/ml as quality control. The lowest detectable concentration (LOQ) is 5 ng/ml.
Plasma sample preparation: Plasma (0.2 ml) was placed in a test tube, to which metoclopramide (25 μL; 7.5 ng/μL) was added as internal standard, followed by 50 μL of 0.2 M K2HPO4. The mixture was mixed by shaking for 30 seconds. Then, 3 ml of tert-butyl methyl ether was added as the extraction reagent. The mixture was mixed by shaking for 60 seconds before centrifuged at 3,000 rpm for 5 minutes. The upper clear solution was removed and placed into another test tube. This clear solution was dry with a stream of N2. To the dried residue, 200 μL of mobile phase was added. The tube was shaken for 60 seconds. Each injection used 30 μL of sample.

Data set [2] concerns pregnancy. The settings on record: cited from earlier work.
For another data set, the system named is menstrual cycle. The following applies: RU-486 given late in the follicular phase; cited from earlier work.
Data set [3] has as its system pregnancy. The settings on record: RU-486 at 50 mg or 10 mg; cited from earlier work.

Regarding `CC#C[C@]1(O)CC[C@H]2[C@@H]3CCC4=CC(=O)CCC4=C3[C@@H](c3ccc(N(C)C)cc3)C[C@@]21C` [Mifepristone, 17β-hydroxy-11β-(4-dimethylaminophenyl)-17α-(1-propynyl)-estra-4,9-dien-3-one], the Tmax in data set [1] was found to be 0.91 ± 0.19 h. Besides, the AUC(0-t) in data set [1] (read-out: AUC0-120 of RU-486) is 8720 ± 1470 ng·h/mL. Besides, in data set [1] (read-out: AUC0-∞ of RU-486), the AUC(0-inf) was found to be 9420 ± 1550 ng·h/mL. The half-life in data set [1] (read-out: T1/2 of RU-486 (converted)) was 35.2 ± 2.86 h. Further, the result with abortion with pregnancy [2] (200 mg or 150 mg of RU-486) is given as “good results with abortion”. Moreover, in the data set with pregnancy [2] (600 mg RU-486 and 400 mg misprostol, within the first 49 days of pregnancy), the “success rate of early termination of pregnancy” value is 97%. Besides, the “prolongation of the follicular phase” value in the data set with menstrual cycle is 10 to 15 days. Also, the “morning after pregnancy prevention effect” value in the data set on pregnancy [3] is “same effect as 500 mg”.

The values are drawn from US20050220715A1, “Methods and compositions for improving drug safety” (Lotus Pharmaceutical Co., Ltd., priority 2004, published 2005).
